Experimental data: PMC8808171, “Nonselective TRPC channel inhibition and suppression of aminoglycoside-induced premature termination codon readthrough by the small molecule AC1903” (The Journal of Biological Chemistry, 2022)
pIC50: −log10 of the molar value.

How the values were obtained:
TRPC1:C4 (A498) = molecular target: T1, TRPC1:C4 (A498) (Homo sapiens, UniProt P48995+Q9UBN4); experiment: [Ca2+]i recordings (Fura-2), endogenous TRPC1:C4 channels in A498 cells; format: cell-based; conditions: activator EA (100 nM)
T1 construct: endogenous in cells; host or cells: A498
T1 sequence (Q9UBN4 whole entry): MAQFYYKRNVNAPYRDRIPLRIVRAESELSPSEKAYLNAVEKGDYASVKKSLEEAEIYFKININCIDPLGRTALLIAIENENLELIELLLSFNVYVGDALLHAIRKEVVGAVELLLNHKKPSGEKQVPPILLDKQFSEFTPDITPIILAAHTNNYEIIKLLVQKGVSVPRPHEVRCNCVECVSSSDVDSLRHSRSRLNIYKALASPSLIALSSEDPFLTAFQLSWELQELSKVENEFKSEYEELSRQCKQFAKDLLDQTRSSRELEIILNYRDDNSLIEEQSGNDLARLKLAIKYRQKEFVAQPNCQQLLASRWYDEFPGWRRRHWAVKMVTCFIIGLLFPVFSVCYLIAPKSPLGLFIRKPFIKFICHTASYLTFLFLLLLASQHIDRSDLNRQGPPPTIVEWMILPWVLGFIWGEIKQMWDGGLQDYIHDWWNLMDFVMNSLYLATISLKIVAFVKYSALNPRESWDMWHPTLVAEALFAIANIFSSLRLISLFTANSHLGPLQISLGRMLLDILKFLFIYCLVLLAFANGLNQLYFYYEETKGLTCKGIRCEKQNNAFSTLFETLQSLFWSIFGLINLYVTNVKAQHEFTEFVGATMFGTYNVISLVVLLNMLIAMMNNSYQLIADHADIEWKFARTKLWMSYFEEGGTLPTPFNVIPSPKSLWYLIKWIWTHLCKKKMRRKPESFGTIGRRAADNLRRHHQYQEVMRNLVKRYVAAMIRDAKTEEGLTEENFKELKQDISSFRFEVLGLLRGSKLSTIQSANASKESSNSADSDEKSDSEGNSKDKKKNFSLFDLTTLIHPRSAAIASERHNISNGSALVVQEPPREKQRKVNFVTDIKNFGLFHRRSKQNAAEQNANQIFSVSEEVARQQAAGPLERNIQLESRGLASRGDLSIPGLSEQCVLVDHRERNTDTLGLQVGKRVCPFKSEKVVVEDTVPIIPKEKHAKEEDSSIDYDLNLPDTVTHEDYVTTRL
T1 sequence (P48995 whole entry): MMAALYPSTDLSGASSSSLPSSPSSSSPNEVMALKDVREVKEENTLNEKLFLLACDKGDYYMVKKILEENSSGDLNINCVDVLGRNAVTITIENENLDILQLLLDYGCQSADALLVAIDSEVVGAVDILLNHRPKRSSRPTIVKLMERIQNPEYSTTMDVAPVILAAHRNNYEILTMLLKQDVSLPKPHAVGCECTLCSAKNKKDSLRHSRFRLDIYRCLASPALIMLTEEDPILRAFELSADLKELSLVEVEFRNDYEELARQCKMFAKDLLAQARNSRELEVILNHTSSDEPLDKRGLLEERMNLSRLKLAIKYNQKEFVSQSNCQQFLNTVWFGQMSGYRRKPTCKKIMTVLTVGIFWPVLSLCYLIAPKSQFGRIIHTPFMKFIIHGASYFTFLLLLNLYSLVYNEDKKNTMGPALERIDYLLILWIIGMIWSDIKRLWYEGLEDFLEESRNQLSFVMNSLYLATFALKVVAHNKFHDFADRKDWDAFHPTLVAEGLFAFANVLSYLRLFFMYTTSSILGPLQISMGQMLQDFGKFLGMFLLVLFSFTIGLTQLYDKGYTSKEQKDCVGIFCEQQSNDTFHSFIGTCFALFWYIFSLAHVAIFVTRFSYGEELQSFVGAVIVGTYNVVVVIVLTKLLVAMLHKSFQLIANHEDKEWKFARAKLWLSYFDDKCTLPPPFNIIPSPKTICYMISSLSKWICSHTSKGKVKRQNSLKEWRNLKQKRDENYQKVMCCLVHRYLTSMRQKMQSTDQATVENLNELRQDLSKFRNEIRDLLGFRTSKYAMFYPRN
Method: HEK T-REx cells expressing tetracycline-inducible TRPC4, TRPC5, TRPC5–C1,TRPC4–C1, and hPiezo1 have been described previously ([46], [57], [59], [78]). Cloning of TRPC3 has been described previously ([79]). To create cells stably expressing tetracycline-inducible TRPC3, HEK T-REx cells were transfected with pcDNA4/TO/hTRPC3 using jetPRIME transfection reagent (VWR) according to manufacturer’s instructions. After 48 h cells were put under antibiotic selection using 400 μg/ml zeocin and 10 μg/ml Blasticidin S (Invivogen)). Medium changes were carried out every 2 to 3 days to remove dead cells. Inducible HEK T-REx cells were cultured in Dulbecco’s modified Eagle medium GlutaMAX (Thermo Fisher Scientific) containing 10% fetal bovine serum (FBS; Merck), penicillin-streptomycin (100 units ml^−1/100 μg ml^−1), with the addition of blasticidin (10 μg ml^1; Invivogen) and zeocin (Invivogen) at either 400 μg ml^−1 (TRPC cell lines) or 200 μg ml^−1 (hPiezo1) to maintain the stable incorporation of the tetracycline repressor and the channel of interest, respectively. Expression of tetracycline-inducible proteins was induced by the addition of tetracycline (TRPC cell lines: 1 μg ml^−1, hPiezo1: 100 ng ml^−1; 24 h) to cell culture medium. […]
For Ca^2+ recording, electrophysiology, and cell viability experiments, data were analyzed using GraphPad Prism 9.0. […]

[1] = test system: TRPC3, TRPC4, TRPC5, TRPC6, TRPC4–C1, TRPC5–C1, endogenous TRPC1:C4 channels; experiment: Summary of TRPC channel inhibition by AC1903; format: cell-based; conditions: TRPC3, TRPC4, TRPC5, TRPC6, TRPC4–C1, TRPC5–C1, endogenous TRPC1:C4 in A498; read-out: IC50 values over multiple TRPC channels
Text: Nonsense mutations, which occur in ∼11% of patients with genetic disorders, introduce premature termination codons (PTCs) that lead to truncated proteins and promote nonsense-mediated mRNA decay. Aminoglycosides such as G418 permit PTC readthrough and so may be used to address this problem. However, their effects are variable between patients, making clinical use of aminoglycosides challenging. In this study, we tested whether TRPC nonselective cation channels contribute to the variable PTC readthrough effect of aminoglycosides by controlling their cellular uptake. […] In addition, our data strengthen the hypothesis that nonselective calcium channels are involved in aminoglycoside uptake.
[Ca^2+]i recordings were carried out using the ratiometric Ca^2+ dye Fura-2. 24 h prior to experiments, cells were plated either onto black, clear bottom poly-D-lysine-coated 96-well plates (HEK cells) or clear 96-well plates (A498 cells, CHO cells) at 50,000 cells per well (HEK cells) or 20,000 cells per well (A498 cells, CHO cells). For tetracycline-inducible HEK T-REx cells, protein expression was induced with tetracycline (TRPC channels: 1 μg ml^−1; hPiezo1: 100 ng ml^−1) at this point. […]

Hill slope (TRPC1:C4 (A498); A498): -1.2 | pIC50 (TRPC1:C4 (A498); A498 cells): 5.47 | pIC50 [1]: 4.74 to 5.74
Structure (SMILES): c1ccc(Cn2c(NCc3ccco3)nc3ccccc32)cc1 [AC1903]
